# Calls of active or inactive are those of the source. The rule behind the calls is not given here.
# What was measured:
# Staphylococcus aureus = experiment: Antibacterial activity against Staphylococcus aureus; type: functional
# Bacillus subtilis [1] = experiment: Antibacterial activity against Bacillus subtilis 1046 in presence of 1.25 mM Ca2+; type: functional
# Bacillus subtilis [2] = experiment: Antibacterial activity against Bacillus subtilis 1046 in presence of 5 mM Ca2+; type: functional
# Lipid bilayer [3] = experiment: Binding affinity to DMPC/DMPG large unilamellar vesicles assessed as increase in intrinsic fluorescence in presence of >1 mM Ca2+ by fluorescence based assay
# Lipid bilayer [4] = experiment: Binding affinity to DMPC/DMPG large unilamellar vesicles assessed as increase in intrinsic fluorescence in presence of >0.1 mM Ca2+ by fluorescence based assay
# Lipid bilayer [5] = experiment: Binding affinity to DMPC/DMPG large unilamellar vesicles assessed as increase in intrinsic fluorescence in presence of >10 mM Ca2+ by fluorescence based assay
# Lipid bilayer [6] = experiment: Binding affinity to DMPC/DMPG large unilamellar vesicles assessed as increase in intrinsic fluorescence in presence of 1 mM Ca2+ by fluorescence based assay
# Lipid bilayer [7] = experiment: Binding affinity to DMPC/DMPG large unilamellar vesicles assessed as increase in intrinsic fluorescence in presence of 10 mM Ca2+ by fluorescence based assay
SMILES,MIC (Bacillus subtilis [1]) [µg/mL],MIC (Bacillus subtilis [2]) [µg/mL],Activity (Lipid bilayer [3]),Activity (Lipid bilayer [5]),Activity (Lipid bilayer [6]),Activity (Lipid bilayer [7]),MIC (Staphylococcus aureus) [µg/mL],Activity (Lipid bilayer [4])
CCCCCCCCCC(=O)N[C@H](Cc1c[nH]c2ccccc12)C(=O)N[C@H](CC(N)=O)C(=O)N[C@@H](CC(=O)O)C(=O)N[C@H]1CNC(=O)[C@@H](Cc2c[nH]c3ccccc23)NC(=O)[C@@H](CCC(=O)O)NC(=O)[C@H](CO)NC(=O)CNC(=O)[C@@H](CC(=O)O)NC(=O)[C@H](C)NC(=O)[C@@H](CC(=O)O)NC(=O)[C@@H](CCCCN)NC(=O)CNC1=O,,,,,,,160,
CCCCCCCCCC(=O)N[C@@H](Cc1c[nH]c2ccccc12)C(=O)N[C@H](CC(N)=O)C(=O)N[C@@H](CC(=O)O)C(=O)N[C@@H]1C(=O)NCC(=O)N[C@@H](CCCN)C(=O)N[C@@H](CC(=O)O)C(=O)N[C@H](C)C(=O)N[C@@H](CC(=O)O)C(=O)NCC(=O)N[C@H](CO)C(=O)N[C@@H]([C@H](C)CC(=O)O)C(=O)N[C@@H](CC(=O)c2ccccc2N)C(=O)O[C@@H]1C,0.75,0.5,,,,,1.9,Active
CCCCCCCCCC(=O)N[C@@H](Cc1c[nH]c2ccccc12)C(=O)N[C@@H](CC(N)=O)C(=O)N[C@@H](CC(=O)O)C(=O)N[C@@H]1C(=O)NCC(=O)N[C@@H](CCCCN)C(=O)N[C@@H](CC(=O)O)C(=O)N[C@H](C)C(=O)N[C@@H](CC(=O)O)C(=O)NCC(=O)N[C@H](CO)C(=O)N[C@@H](CCC(=O)O)C(=O)N[C@@H](Cc2c[nH]c3ccccc23)C(=O)N[C@H]1C,> 100,10,,Active,,,,
CCCCCCCCCC(=O)N[C@H](Cc1c[nH]c2ccccc12)C(=O)N[C@H](CC(N)=O)C(=O)N[C@@H](CC(=O)O)C(=O)N[C@H]1C(=O)NCC(=O)N[C@H](CCCCN)C(=O)N[C@H](CC(=O)O)C(=O)N[C@@H](C)C(=O)N[C@H](CC(=O)O)C(=O)NCC(=O)N[C@@H](CO)C(=O)N[C@H](CCC(=O)O)C(=O)N[C@H](Cc2c[nH]c3ccccc23)C(=O)O[C@H]1C,> 200,100,,,Active,Active,,

# Further lines, with some results ahead:
MIC (Bacillus subtilis [1]) [µg/mL],MIC (Bacillus subtilis [2]) [µg/mL],Activity (Lipid bilayer [3]),Activity (Lipid bilayer [5]),Activity (Lipid bilayer [6]),Activity (Lipid bilayer [7]),SMILES,MIC (Staphylococcus aureus) [µg/mL],Activity (Lipid bilayer [4])
50,10,Active,,,,CCCCCCCCCC(=O)N[C@@H](Cc1c[nH]c2ccccc12)C(=O)N[C@@H](CC(N)=O)C(=O)N[C@@H](CC(=O)O)C(=O)N[C@@H]1C(=O)NCC(=O)N[C@@H](CCCCN)C(=O)N[C@@H](CC(=O)O)C(=O)N[C@H](C)C(=O)N[C@@H](CC(=O)O)C(=O)NCC(=O)N[C@H](CO)C(=O)N[C@@H](CCC(=O)O)C(=O)N[C@@H](Cc2c[nH]c3ccccc23)C(=O)N[C@@H]1C,,
1.5,0.5,,,,,CCCCCCCCCC(=O)N[C@@H](Cc1c[nH]c2ccccc12)C(=O)N[C@@H](CC(N)=O)C(=O)N[C@@H](CC(=O)O)C(=O)N[C@@H]1C(=O)NCC(=O)N[C@@H](CCCCN)C(=O)N[C@@H](CC(=O)O)C(=O)N[C@H](C)C(=O)N[C@@H](CC(=O)O)C(=O)NCC(=O)N[C@H](CO)C(=O)N[C@@H](CCC(=O)O)C(=O)N[C@@H](Cc2c[nH]c3ccccc23)C(=O)O[C@@H]1C,,Active
